What follows are compounds tested against Sigma non-opioid intracellular receptor 1 (Cavia porcellus) (UniProt Q60492) (assay: Receptor binding affinity against Sigma-1 receptor from guinea pig membranes).
Sequence of Sigma non-opioid intracellular receptor 1 (Cavia porcellus) (Q60492 whole entry, looked up): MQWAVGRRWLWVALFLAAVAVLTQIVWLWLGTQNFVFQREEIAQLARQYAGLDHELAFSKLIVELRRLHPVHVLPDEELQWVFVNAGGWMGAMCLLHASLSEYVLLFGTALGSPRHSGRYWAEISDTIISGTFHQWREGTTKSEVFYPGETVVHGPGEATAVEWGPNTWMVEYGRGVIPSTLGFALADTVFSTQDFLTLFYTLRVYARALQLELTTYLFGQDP

| Ki | Compound |
| --- | --- |
| 1.2 nM | O=[N+]([O-])c1ccc(OCC2CCN(Cc3ccc(F)cc3)CC2)cc1 [1-(4-Fluoro-benzyl)-4-(4-nitro-phenoxymethyl)-piperidine] |

These compounds were tested against Sigma non-opioid intracellular receptor 1 (Cavia porcellus) (UniProt Q60492) (assay: In vitro for binding affinity at sigma-1 receptor by measuring its ability to displace [3H](+)-pentazocine from guinea pig membranes).

| Compound | Ki |
| --- | --- |
| N#Cc1ccc(OCC2CCN(CCCF)CC2)cc1 | 4.3 nM |
| FCCN1CCC(COc2ccc(I)cc2)CC1 [1-(2-Fluoro-ethyl)-4-(4-iodo-phenoxymethyl)-piperidine] | 0.84 nM |
| Fc1cccc(CN2CCC(COc3c(F)c(F)c(F)c(F)c3F)CC2)c1 [1-(3-Fluoro-benzyl)-4-pentafluorophenyloxymethyl-piperidine] | 3.3 nM |
| FCCCN1CCC(COc2c(F)c(F)c(F)c(F)c2F)CC1 [1-(3-Fluoro-propyl)-4-pentafluorophenyloxymethyl-piperidine] | 1.7 nM |
| Fc1ccc(CN2CCC(COc3c(F)c(F)c(F)c(F)c3F)CC2)cc1 [1-(4-Fluoro-benzyl)-4-pentafluorophenyloxymethyl-piperidine] | 3.6 nM |
| N#Cc1ccc(OCC2CCN(CCF)CC2)cc1 [4-[1-(2-Fluoro-ethyl)-piperidin-4-ylmethoxy]-benzonitrile] | 24.3 nM |

Now from value to compound:

| Ki | Compound |
| --- | --- |
| 0.5 nM | Ic1ccc(OCC2CCN(CC3CC3)CC2)cc1 [1-Cyclopropylmethyl-4-(4-iodo-phenoxymethyl)-piperidine] |
| > 1000 nM | Fc1c(F)c(F)c(CN2CCC(COc3c(F)c(F)c(F)c(F)c3F)CC2)c(F)c1F [1-Pentafluorophenylmethyl-4-pentafluorophenyloxymethyl-piperidine] |
| 2.3 nM | OCCN1CCC(COc2ccc(I)cc2)CC1 [2-[4-(4-Iodo-phenoxymethyl)-piperidin-1-yl]-ethanol] |
| 10.5 nM | N#Cc1ccccc1CN1CCC(COc2ccc(I)cc2)CC1 [2-[4-(4-Iodo-phenoxymethyl)-piperidin-1-ylmethyl]-benzonitrile] |
| 2.9 nM | N#Cc1cccc(CN2CCC(COc3ccc(I)cc3)CC2)c1 [3-[4-(4-Iodo-phenoxymethyl)-piperidin-1-ylmethyl]-benzonitrile] |
| 0.88 nM | Brc1cccc(OCC2CCN(CC3CC3)CC2)c1 [4-(3-Bromo-phenoxymethyl)-1-cyclopropylmethyl-piperidine] |
| 0.38 nM | FCCCN1CCC(COc2ccc(Br)cc2)CC1 [4-(4-Bromo-phenoxymethyl)-1-(3-fluoro-propyl)-piperidine] |
| 0.6 nM | Brc1ccc(OCC2CCN(CC3CC3)CC2)cc1 [4-(4-Bromo-phenoxymethyl)-1-cyclopropylmethyl-piperidine] |
| 2.02 nM | N#Cc1ccc(OCC2CCN(Cc3ccccc3Br)CC2)cc1 [4-[1-(2-Bromo-benzyl)-piperidin-4-ylmethoxy]-benzonitrile] |
| 9.24 nM | N#Cc1ccc(OCC2CCN(Cc3ccccc3I)CC2)cc1 [4-[1-(2-Iodo-benzyl)-piperidin-4-ylmethoxy]-benzonitrile] |
| 0.76 nM | N#Cc1ccc(OCC2CCN(Cc3ccc(F)cc3)CC2)cc1 [4-[1-(4-Fluoro-benzyl)-piperidin-4-ylmethoxy]-benzonitrile] |

Source: BindingDB's records for doi:10.1021/jm960720+ (Ansto, 1997)
